Experimental data as given in ChEMBL document CHEMBL1201862, “PubChem BioAssay data set” (2004).
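Where inhibition never reached the appropriate level, the endpoint shown equals the highest concentration tested. Otherwise, values were interpolated linearly from a five-concentration, 48-hour dose response in 96-well plates. GI50: concentration for 50% inhibition of growth.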 The source made the active and inactive calls. Cut-off read from the data, not from the text of the source: active = GI50 up to about 1.1 µM and inactive = higher.

Assays:
Experiment in all cases: growth of human tumour cells (NCI), 48 h
MDA-N = tested on: MDA-N
OVCAR-4 = tested on: OVCAR-4
ACHN = tested on: ACHN
HT-29 = tested on: HT-29
T47D = tested on: T47D
HCT-116 = tested on: HCT-116
NCI-H23 = tested on: NCI-H23
SW-620 = tested on: SW-620
A549 = tested on: A549
SK-MEL-28 = tested on: SK-MEL-28
UACC-62 = tested on: UACC-62
CCRF-CEM = tested on: CCRF-CEM
HCT-15 = tested on: HCT-15
U-251 = tested on: U-251
Hs-578T = tested on: Hs-578T
IGROV-1 = tested on: IGROV-1
MDA-MB-435 = tested on: MDA-MB-435
NCI/ADR-RES = tested on: NCI/ADR-RES
DU-145 = tested on: DU-145
SK-MEL-5 = tested on: SK-MEL-5
SNB-75 = tested on: SNB-75
PC-3 = tested on: PC-3
NCI-H522 = tested on: NCI-H522
MDA-MB-231 = tested on: MDA-MB-231
HOP-62 = tested on: HOP-62
A498 = tested on: A498
UO-31 = tested on: UO-31
SF-268 = tested on: SF-268
OVCAR-8 = tested on: OVCAR-8
SF-539 = tested on: SF-539
SF-295 = tested on: SF-295
SN12C = tested on: SN12C
COLO 205 = tested on: COLO 205
HOP-92 = tested on: HOP-92
RPMI-8226 = tested on: RPMI-8226
K562 = tested on: K562
786-0 = tested on: 786-0
KM12 = tested on: KM12
Malme-3M = tested on: Malme-3M
SR = tested on: SR
TK-10 = tested on: TK-10
M14 = tested on: M14
SNB-19 = tested on: SNB-19
NCI-H226 = tested on: NCI-H226
NCI-H460 = tested on: NCI-H460
LOX IMVI = tested on: LOX IMVI
SK-MEL-2 = tested on: SK-MEL-2
OVCAR-3 = tested on: OVCAR-3
BT-549 = tested on: BT-549
MCF7 = tested on: MCF7
OVCAR-5 = tested on: OVCAR-5
CAKI-1 = tested on: CAKI-1
SK-OV-3 = tested on: SK-OV-3
EKVX = tested on: EKVX
HCC 2998 = tested on: HCC 2998
MOLT-4 = tested on: MOLT-4
HL-60 = tested on: HL-60
UACC-257 = tested on: UACC-257
RXF 393 = tested on: RXF 393

With `C=C1CC(C)(COc2ccc3ccc(=O)oc3c2)OC1=O` (centres undefined) the GI50 (MDA-N) was 0.951 µM (active), the GI50 (OVCAR-4) was 2.84 µM (inactive) and the GI50 (ACHN) was 3.46 µM (inactive). For the same compound, the GI50 (HT-29) was 1.57 µM (inactive), the GI50 (T47D) was 3.66 µM (inactive) and the GI50 (HCT-116) was 1.14 µM (inactive). The GI50 (NCI-H23) was 2.29 µM (inactive), the GI50 (SW-620) was 0.822 µM (active) and the GI50 (A549) was 13.5 µM (inactive). The GI50 (SK-MEL-28) was 2.94 µM (inactive), the GI50 (UACC-62) was 2.94 µM (inactive) and the GI50 (CCRF-CEM) was 0.402 µM (active). The GI50 (HCT-15) was 2.61 µM, the GI50 (U-251) was 13 µM (inactive) and the GI50 (Hs-578T) was 4.91 µM (inactive). For the same compound, the GI50 (IGROV-1) was 2.93 µM (inactive), the GI50 (MDA-MB-435) was 2.12 µM (inactive) and the GI50 (NCI/ADR-RES) was 1.04 µM (active). The GI50 (DU-145) was 3.22 µM (inactive), the GI50 (SK-MEL-5) was 2.34 µM (inactive) and the GI50 (SNB-75) was 9.57 µM (inactive). For the same compound, the GI50 (PC-3) was 3.48 µM (inactive), the GI50 (NCI-H522) was 0.733 µM (active) and the GI50 (MDA-MB-231) was 8.28 µM (inactive). The GI50 (HOP-62) was 16 µM (inactive), the GI50 (A498) was 7.45 µM (inactive) and the GI50 (UO-31) was 15.8 µM (inactive). The GI50 (SF-268) was 10.9 µM (inactive), the GI50 (OVCAR-8) was 4.72 µM (inactive) and the GI50 (SF-539) was 2.65 µM (inactive). The GI50 (SF-295) was 5.68 µM (inactive), the GI50 (SN12C) was 8.22 µM (inactive) and the GI50 (COLO 205) was 0.982 µM (active). The GI50 (HOP-92) was 1.12 µM (inactive), the GI50 (RPMI-8226) was 0.757 µM (active) and the GI50 (K562) was 0.581 µM (active). For the same compound, the GI50 (786-0) was 1.42 µM (inactive), the GI50 (KM12) was 4.07 µM (inactive) and the GI50 (Malme-3M) was 1.01 µM (active). The GI50 (SR) was 1.08 µM (active), the GI50 (TK-10) was 1.58 µM (inactive) and the GI50 (M14) was 1.14 µM (inactive). The GI50 (SNB-19) was 18.7 µM (inactive), the GI50 (NCI-H226) was 11.4 µM (inactive) and the GI50 (NCI-H460) was 6.62 µM (inactive). For the same compound, the GI50 (LOX IMVI) was 1.35 µM (inactive), the GI50 (SK-MEL-2) was 1.31 µM (inactive) and the GI50 (OVCAR-3) was 3.72 µM (inactive). For the same compound, the GI50 (BT-549) was 1.02 µM (active), the GI50 (MCF7) was 1.48 µM (inactive) and the GI50 (OVCAR-5) was 6.73 µM (inactive). The GI50 (CAKI-1) was 2.03 µM (inactive), the GI50 (SK-OV-3) was 8.15 µM (inactive) and the GI50 (EKVX) was 7.53 µM (inactive). For the same compound, the GI50 (HCC 2998) was 2.18 µM (inactive), the GI50 (MOLT-4) was 1.18 µM (inactive) and the GI50 (HL-60) was 0.256 µM (active). The GI50 (UACC-257) was 0.671 µM (active).
For `CSc1c(C(=O)Nc2ccccc2)c(N)nn1-c1ccccc1`, the GI50 (MDA-N) was > 100 µM (inactive), the GI50 (OVCAR-4) was > 100 µM (inactive) and the GI50 (HT-29) was > 100 µM (inactive). The GI50 (T47D) was > 100 µM (inactive), the GI50 (HCT-116) was > 100 µM (inactive) and the GI50 (NCI-H23) was > 100 µM (inactive). For the same compound, the GI50 (SW-620) was > 100 µM (inactive), the GI50 (A549) was > 100 µM (inactive) and the GI50 (SK-MEL-28) was > 100 µM (inactive). The GI50 (UACC-62) was > 100 µM (inactive), the GI50 (CCRF-CEM) was > 100 µM (inactive) and the GI50 (HCT-15) was over 100 µM. The GI50 (U-251) was > 100 µM (inactive), the GI50 (Hs-578T) was > 100 µM (inactive) and the GI50 (MDA-MB-435) was > 100 µM (inactive). The GI50 (NCI/ADR-RES) was > 100 µM (inactive), the GI50 (DU-145) was > 100 µM (inactive) and the GI50 (SK-MEL-5) was > 100 µM (inactive). For the same compound, the GI50 (SNB-75) was > 100 µM (inactive), the GI50 (PC-3) was > 100 µM (inactive) and the GI50 (MDA-MB-231) was > 100 µM (inactive). The GI50 (A498) was > 100 µM (inactive), the GI50 (UO-31) was 67.9 µM (inactive) and the GI50 (SF-268) was > 100 µM (inactive). The GI50 (OVCAR-8) was > 100 µM (inactive), the GI50 (SF-539) was > 100 µM (inactive) and the GI50 (SN12C) was > 100 µM (inactive). The GI50 (COLO 205) was > 100 µM (inactive), the GI50 (RPMI-8226) was > 100 µM (inactive) and the GI50 (K562) was > 100 µM (inactive). The GI50 (786-0) was > 100 µM (inactive), the GI50 (KM12) was > 100 µM (inactive) and the GI50 (Malme-3M) was > 100 µM (inactive). The GI50 (SR) was > 100 µM (inactive), the GI50 (TK-10) was > 100 µM (inactive) and the GI50 (M14) was > 100 µM (inactive). For the same compound, the GI50 (SNB-19) was > 100 µM (inactive), the GI50 (NCI-H226) was > 100 µM (inactive) and the GI50 (NCI-H460) was > 100 µM (inactive). The GI50 (LOX IMVI) was > 100 µM (inactive), the GI50 (SK-MEL-2) was > 100 µM (inactive) and the GI50 (OVCAR-3) was > 100 µM (inactive). The GI50 (BT-549) was > 100 µM (inactive), the GI50 (MCF7) was > 100 µM (inactive) and the GI50 (OVCAR-5) was > 100 µM (inactive). For the same compound, the GI50 (CAKI-1) was > 100 µM (inactive), the GI50 (SK-OV-3) was > 100 µM (inactive) and the GI50 (EKVX) was > 100 µM (inactive). The GI50 (HCC 2998) was > 100 µM (inactive), the GI50 (RXF 393) was 56.9 µM (inactive) and the GI50 (MOLT-4) was > 100 µM (inactive). For the same compound, the GI50 (HL-60) was > 100 µM (inactive) and the GI50 (UACC-257) was > 100 µM (inactive).
`O=C1Nc2ccccc2/C1=N/Nc1ccccc1Cl` was tested, and the GI50 (MDA-N) was 95.5 µM (inactive), the GI50 (OVCAR-4) was 3.57 µM (inactive) and the GI50 (ACHN) was 3.58 µM (inactive). The GI50 (HT-29) was > 100 µM (inactive), the GI50 (T47D) was 12.5 µM (inactive) and the GI50 (HCT-116) was 23.7 µM (inactive). For the same compound, the GI50 (NCI-H23) was 42.8 µM (inactive), the GI50 (SW-620) was > 100 µM (inactive) and the GI50 (A549) was 45.7 µM (inactive). For the same compound, the GI50 (SK-MEL-28) was > 100 µM (inactive), the GI50 (UACC-62) was 89.3 µM (inactive) and the GI50 (CCRF-CEM) was 45.9 µM (inactive). The GI50 (HCT-15) was over 100 µM, the GI50 (U-251) was 17.6 µM (inactive) and the GI50 (Hs-578T) was 22.3 µM (inactive). The GI50 (IGROV-1) was 1.78 µM (inactive), the GI50 (MDA-MB-435) was > 100 µM (inactive) and the GI50 (NCI/ADR-RES) was 44.6 µM (inactive). The GI50 (DU-145) was 70 µM (inactive), the GI50 (SK-MEL-5) was 68.5 µM (inactive) and the GI50 (SNB-75) was 22.1 µM (inactive). For the same compound, the GI50 (PC-3) was > 100 µM (inactive), the GI50 (NCI-H522) was 37.8 µM (inactive) and the GI50 (MDA-MB-231) was 10.3 µM (inactive). The GI50 (HOP-62) was 11.1 µM (inactive), the GI50 (A498) was 18.7 µM (inactive) and the GI50 (UO-31) was 18.7 µM (inactive). The GI50 (SF-268) was 29.8 µM (inactive), the GI50 (OVCAR-8) was 20.6 µM (inactive) and the GI50 (SF-539) was 29 µM (inactive). The GI50 (SF-295) was 32.1 µM (inactive), the GI50 (SN12C) was 21.7 µM (inactive) and the GI50 (COLO 205) was 24.9 µM (inactive). For the same compound, the GI50 (RPMI-8226) was 64.9 µM (inactive), the GI50 (K562) was 43.5 µM (inactive) and the GI50 (786-0) was 10.6 µM (inactive). For the same compound, the GI50 (KM12) was 63.1 µM (inactive), the GI50 (Malme-3M) was 77.3 µM (inactive) and the GI50 (SR) was 7.62 µM (inactive). For the same compound, the GI50 (TK-10) was 5.41 µM (inactive), the GI50 (M14) was 96.2 µM (inactive) and the GI50 (SNB-19) was 29.8 µM (inactive). For the same compound, the GI50 (NCI-H226) was 53.2 µM (inactive), the GI50 (NCI-H460) was 18.2 µM (inactive) and the GI50 (LOX IMVI) was 69 µM (inactive). For the same compound, the GI50 (SK-MEL-2) was 63.5 µM (inactive), the GI50 (OVCAR-3) was 26.6 µM (inactive) and the GI50 (BT-549) was > 100 µM (inactive). The GI50 (MCF7) was > 100 µM (inactive), the GI50 (OVCAR-5) was 51.8 µM (inactive) and the GI50 (CAKI-1) was 15.7 µM (inactive). The GI50 (SK-OV-3) was 16.1 µM (inactive), the GI50 (EKVX) was 14.5 µM (inactive) and the GI50 (HCC 2998) was 81.1 µM (inactive). For the same compound, the GI50 (RXF 393) was 34.8 µM (inactive), the GI50 (MOLT-4) was 75.2 µM (inactive) and the GI50 (HL-60) was 68.1 µM (inactive). For the same compound, the GI50 (UACC-257) was 35.3 µM (inactive).
